Laboratory results as given in ChEMBL document CHEMBL1121697, “Carbocyclic analogues of 5-fluorouracil nucleosides” (1981).

Columns and labels:
Assay type in all cases: functional
[1] = tested on: Mus musculus; assay: Number of deaths recorded in mice with P388 leukemia on days 1-5 after intraperitoneal administration of 50 mg/kg of compound in a q.d. 1-9 schedule; 0/6
[2] = tested on: Mus musculus; assay: Life span ratio of mice treated to that of control mice at dose 50 mg/kg, ip; conditions: route intraperitoneal
[3] = tested on: Mus musculus; assay: Average weight change in treated mice to that of control mice on the same day of administration of 50 mg/kg of compound in a q. d. 1-9 schedule
[4] = organism: Mus musculus; assay: Median life span of the treated mice to that of control mice; 11.1/10.9
[5] = tested on: Mus musculus; assay: Number of deaths recorded in mice with P388 leukemia on days 1-5 after intraperitoneal administration of 50 mg/kg of compound in a q.d. 1-9 schedule; 0/5
[6] = tested on: Mus musculus; assay: Average weight change in treated L1210 leukemia mice to that of control mice on administration of 100 mg/kg of compound in a q. d. 1-9 schedule
[7] = tested on: Mus musculus; assay: Number of deaths recorded in mice with P388 leukemia on days 1-5 after intraperitoneal administration of 600 mg/kg of compound in a q.d. 1-5 schedule; 0/6
[8] = tested on: Mus musculus; assay: Median life span of the treated P388 leukemia mice to that of control mice after intraperitoneal administration of 400 mg/kg of compound in a q.d. 1-5 schedule; 14.3/11.9
[9] = tested on: Mus musculus; assay: Life span ratio of L1210 leukemia mice treated to that of control mice at dose 100 mg/kg, ip; conditions: route intraperitoneal
[10] = tested on: Mus musculus; assay: Life span ratio of P388 leukemia mice treated to that of control mice at dose 600 mg/kg, ip; conditions: route intraperitoneal
[11] = tested on: Mus musculus; assay: Median life span of the treated P388 leukemia mice to that of control mice after intraperitoneal administration of 600 mg/kg of compound in a q.d. 1-5 schedule; 13.1/12.0
[12] = tested on: Mus musculus; assay: Average weight change in treated P388 leukemia mice to that of control mice on administration of 400 mg/kg of compound in a q. d. 1-5 schedule
[13] = tested on: Mus musculus; assay: Average weight change in treated P388 leukemia mice to that of control mice on administration of 200 mg/kg of compound in a q. d. 1-5 schedule
[14] = tested on: Mus musculus; assay: Average weight change in treated P388 leukemia mice to that of control mice on administration of 600 mg/kg of compound in a q. d. 1-5 schedule
[15] = tested on: Mus musculus; assay: Life span ratio of P388 leukemia mice treated to that of control mice at dose 400 mg/kg, ip; conditions: route intraperitoneal
[16] = tested on: Mus musculus; assay: Number of deaths recorded in mice with P388 leukemia on days 1-5 after intraperitoneal administration of 400 mg/kg of compound in a q.d. 1-5 schedule; 0/6
[17] = tested on: Mus musculus; assay: Number of deaths recorded in mice with P388 leukemia on days 1-5 after intraperitoneal administration of 100 mg/kg of compound in a q.d. 1-9 schedule; 0/6
[18] = tested on: Mus musculus; assay: Number of deaths recorded in mice with P388 leukemia on days 1-5 after intraperitoneal administration of 200 mg/kg of compound in a q.d. 1-5 schedule; 0/6
[19] = tested on: Mus musculus; assay: Life span ratio of P388 leukemia mice treated to that of control mice at dose 200 mg/kg, ip; conditions: route intraperitoneal
[20] = tested on: Mus musculus; assay: Median life span of the treated P388 leukemia mice to that of control mice after intraperitoneal administration of 50 mg/kg of compound in a q.d. 1-9 schedule; 10.5/10.9
[21] = tested on: Mus musculus; assay: Life span ratio of P388 leukemia mice treated to that of control mice at dose 100 mg/kg, ip; conditions: route intraperitoneal
[22] = tested on: Mus musculus; assay: Median life span of the treated P388 leukemia mice to that of control mice after intraperitoneal administration of 100 mg/kg of compound in a q.d. 1-9 schedule; 11.4/11.3
[23] = tested on: Mus musculus; assay: Average weight change in treated P388 leukemia mice to that of control mice on administration of 50 mg/kg of compound in a q. d. 1-9 schedule
[24] = tested on: Mus musculus; assay: Number of deaths recorded in mice with L-1210 leukemia on days 1-5 after intraperitoneal administration of 100 mg/kg of compound in a q.d. 1-9 schedule; 0/6
[25] = tested on: Mus musculus; assay: Average weight change in treated P388 leukemia mice to that of control mice on administration of 100 mg/kg of compound in a q. d. 1-9 schedule
[26] = tested on: Mus musculus; assay: Median life span of the treated L1210 leukemia mice to that of control mice after intraperitoneal administration of 100 mg/kg of compound in a q.d. 1-9 schedule; 8.3/8.2
[27] = tested on: Mus musculus; assay: Median life span of the treated P388 leukemia mice to that of control mice after intraperitoneal administration of 200 mg/kg of compound in a q.d. 1-5 schedule 12.0/11.9
[28] = tested on: Mus musculus; assay: Life span ratio of P388 leukemia mice treated to that of control mice at dose 50 mg/kg, ip; conditions: route intraperitoneal

Q: Which results are given for `O=c1[nH]c(=O)n(C2CC(CO)C(O)C2O)cc1F` (stereo not drawn)?
A: No. of deaths [1]: 0; T/C [2]: 101%; Weight change [3]: 0.9 g; Median life span [4]: 11.1 days

Q: For `O=c1[nH]c(=O)n([C@H]2C[C@H](O)[C@@H](CO)O2)cc1F` [FLOXURIDINE], which No. of deaths [5] is on record?
A: 0

Q: What about the Weight change [6] of the same compound?
A: -0.5 g

Q: What about the No. of deaths [7] of the same compound?
A: 0

Q: And the Median life span [8]?
A: 14.3 days

Q: And the T/C [9]?
A: 101%

Q: And the T/C [10]?
A: 109%

Q: And the Median life span [11]?
A: 13.1 days

Q: What about the Weight change [12] of the same compound?
A: -0.3 g

Q: And the Weight change [13]?
A: 0.8 g

Q: What about the Weight change [14] of the same compound?
A: -0.7 g

Q: What about the T/C [15] of the same compound?
A: 120%

Q: What about the No. of deaths [16] of the same compound?
A: 0

Q: What about the No. of deaths [17] of the same compound?
A: 0

Q: And the No. of deaths [18]?
A: 0

Q: And the T/C [19]?
A: 100%

Q: And the Median life span [20]?
A: 10.5 days

Q: What about the T/C [21] of the same compound?
A: 100%

Q: What about the Median life span [22] of the same compound?
A: 11.4 days

Q: What about the Weight change [23] of the same compound?
A: 1 g

Q: And the No. of deaths [24]?
A: 0

Q: What about the Weight change [25] of the same compound?
A: 0.6 g

Q: What about the Median life span [26] of the same compound?
A: 8.3 days

Q: And the Median life span [27]?
A: 12 days

Q: What about the T/C [28] of the same compound?
A: 96%
